Measured values from patent US20160297828A1, “SPIROCYCLIC COMPOUNDS CONTAINING SPIRO[INDOLYL-3,1'-PYRROLO[3,4-C]PYRROLE] CORE AND SULPHUR-CONTAINING AMINO ACID RESIDUES” (priority 2013, published 2016).
Marks after values point to notes of the source that are not given here.

Legend:
Format in all cases: in vivo
[1] = test system: neuron-specific enolase (NSE); assay: Neuron-specific enolase (NSE) activity in rats with bilateral carotid occlusion (ELISA); settings: BCO; for NSE activity (dynamics of neurodestructive changes): n = 7
Protocol: The derivative of 3,2′-spiro-pyrrolo-2-oxindole was studied in conventionally effective dose of 10 mg/kg […] (iv)—dose that by the results of our previous study provided maximum antihypoxic activity of the SI-86compound. Reference drugs were injected intraperitoneally (ip). […] BCO was made to rats of control pathology and as therapy 0.9% NaCI solution was administered calculated for 2 ml/kg ip.
Pseudooperative rats were exposed to all interventions (anesthesia, skin incision, dissection of vessels) except arteries ligation that leveled traumatic effect of experimental conditions.
To determine neurospecific enolase, specific marker of cerebral ischemia,—to the period (4 th and 21 st day of CVA) in rat's blood was sampled by sagittal sinus puncture (0.2-0.4 ml). NSE activity was measured by ELISA using a set NSE EIA KIT (DAI, USA) on the instrument of the company “Hipson” (Czech Republic).

[2] = test system: liver and pancrea cells; assay: Pro/antiapoptosis properties, electrophoresis of DNA fragments; settings: intact male Wistar rats; 50 mg/kg
Protocol: The assessment of pro/antiapoptotosis properties of substances was carried in intact male rats of Wistar line. The test substance were administered for 2 weeks by means of a probe in aqueous suspension containing Tween-80 at a dose of 50 mg/kg of body weight. The animals were euthanized by cervical vertebrae translocation 24 hours after the experiment. The identification of apoptosis of liver and pancrea cells was performed using electrophoretic method. […] Cell necrosis conditioned the “smeared” nature of DNA migration zone. The luminescence band of intact DNA was in the starting area.
The expression of apoptosis manifestations was assessed by registration of DNA fragments via electrophoresis.

[3] = test system: neuron-specific enolase (NSE); assay: Neuron-specific enolase (NSE) activity in rats with intracerebral hemorrhage (ELISA); settings: for NSE activity (dynamics of neurodestructive changes): acute cerebral hemorrhage, n = 7; for enzyme activity decreased in relation to the control pathology group / efficiency in reducing NSE better than citocoline: hemorrhage
Protocol: The derivative of 3,2′-spiro-pyrrolo-2-oxindole was investigated in conventionally effective dose of 10 mg/kg […] (iv)—dose that according to the results of our previous studies provided maximum antihypoxic activity of SI-86 compound. Reference drugs were injected intraperitoneally (ip). […] Autoblood was injected to rats with control pathology and 0.9% NaCI solution was administered as therapy calculated for 2 ml/kg ip.
Psevdooperated rats were exposed to all interventions (anesthesia, craniotomy) with the exception of autoblood administration that leveled traumatic impact of experimental conditions.
To determine neuron-specific enolase, the specific marker of cerebral ischemia,—for corresponding period (4 th and 21 st day of CVA) in rats, blood was sampled by sagittal sinus puncture (0.2-0.4 ml). NSE activity was measured by ELISA using a set NSE EIA KIT (DAI, USA) on the instrument of the company “Hipson” (Czech Republic).

[4] = test system: rats; assay: Acute normobaric hypoxic hypoxia with hypercapnia (ANHHH), life duration; settings: preventive administration; SI-86 and SI-108 10 mg/kg iv, mexydol 100 mg/kg ip
Protocol: The study of antihypoxic activity of 10 original derivatives of 3,2′-spiro-pyrrolo-2-oxindole was conducted on models of acute normobaric hypoxic hypoxia with hypercapnia (ANHHH) and acute asphyxia. ANHHH was modeled by means of rat arrangement into isolated pressure compartments (0.001 m^3). The observation conducted until the death of the animals. The antihypoxic activity was assessed by life duration (in minutes) in relation to the control taken as 100%, by the formula AA=tt/tk×100%, wherein AA—antihypoxic activity (%), tt—life duration of test animals, tc—life duration of control animals.
The preliminary screening of test substances was performed on ANHHH model. All derivatives were administered in the same dose of 10 mg/kg […] (iv) 1 hour prior to pathological state modeling. […] The effectiveness of a leader compound was evaluated at doses 5; 10 and 15 mg/kg iv. Mexydol was chosen as a reference drug having antihypoxic action in combination with antioxidant and membrane protective activity, which is successfully used in patients with CVA and IM. Mexydol was administered intraperitoneally (ip) at a dose of 100 mg/kg according to similar scheme.

[5] = day 4, SI-86 10 mg/kg iv, citocoline 250 mg/kg ip

For `CSCC[C@@H]1N[C@@]2(C(=O)Nc3ccccc32)[C@@H]2C(=O)N(c3ccc(C)cc3)C(=O)[C@H]12` [SI-86, 5′-(4-Methylphenyl)-3′-[2-(methylthio)ethyl]-3a′,6a′-dihydro-2′H-spiro[indole-3,1′-pyrrolo[3,4-c]pyrrol]-2,4′,6′(1H,3′H,5′H)-trione], the “enzyme activity decreased in relation to the control pathology group” value ([1]; 96 hours) was 2.03 times, the “enzyme activity decreased in relation to the control pathology group” value ([1]; 21 days) was 3.84 times and the “effectiveness in reducing NSE better than citocoline” value ([1]; acute period) was 1.6 times. The “NSE activity (dynamics of neurodestructive changes)” value [1, 5] was 0.61 ± 0.004*^#•, the “NSE activity (dynamics of neurodestructive changes)” value ([1]; day 21, same doses) was 0.204 ± 0.015*^#• and the “effectiveness in reducing NSE better than citocoline” value ([1]; recovery period) was 1.9 times. The level of apoptosis [2] was “closed to that of control group”, the “NSE activity (dynamics of neurodestructive changes)” value [3, 5] was 1.065 ± 0.019*^#• and the “NSE activity (dynamics of neurodestructive changes)” value ([3]; day 21, same doses) was 0.260 ± 0.014*^#•. The “enzyme activity decreased in relation to the control pathology group” value ([3]; 96 hours) was 2.6 times, the “enzyme activity decreased in relation to the control pathology group” value ([3]; 21 days) was 3.6 times and the “efficiency in reducing NSE better than citocoline” value ([3]; acute period) was 17.6%. The “efficiency in reducing NSE better than citocoline” value ([3]; recovery period) was 15.9% and the “increase of life duration in rats in relation to control” value [4] was 33.7%.
